According to EP0048186B1, “Cyclopropane-carboxylic-acid derivatives, their preparation, their use in combating vegetal parasites, animals and locations, their compositions, and intermediates” (ROUSSEL-UCLAF, priority 1980, dated 1982):

Columns and labels:
Format in all cases: in vivo
mouche domestique = assay: Knock-down activity on house fly, direct spray in Kearns and March chamber; details: for KT 50 en mn: direct spray, acetone/isopar L; for activité (conclusion): conclusion in words on the knock-down test
Protocol: 3°): Etude de l'activité de choc sur mouche domestique.
Les insectes tests sont des mouches domestiques femelles âgées de 4/5 jours. On opère par pulvérisation directe en chambre de Kearns et March en utilisant comme solvant un mélange en volumes égaux d'acétone et d'isopar L (quantité de solution utilisée 2 x 0,2 cm3). On utilise environ 50 insectes par dose de traitement. On effectue les contrôles toutes les minutes jusqu'à 10 minutes, puis à 15 minutes et l'on détermine le KT 50 par les méthodes habituelles.

mouches domestiques = assay: Lethal effect on house flies, topical application; details: for activité (conclusion): conclusion in words on the lethal test on house flies; for DL 50 (ng par individu): female house flies 4/5 days old, topical 1 µl acetone solution on dorsal thorax, mortality 24 h after treatment
Protocol: 1°); Etude de l'effet létal sur mouches domestiques.
Les insectes tests sont des mouches domestiques femelles âgées de 4/5 jours. On opère par application topique de 1 ul de solution acétonique du produit sur le thorax dorsal des insectes à l'aide du micro manipulateur d'Arnold. On utilise 50 individus par dose et par traitement. On effectue le contrôle de mortalité vingt-quatre heures après traitement.
Le résultat obtenu exprimé en DL 50 ou dose (en nanogrammes) nécessaire pour tuer 50% des insectes, est le suivant: […]

[1] = system: larves de Spodoptera littoralis; assay: Effect on Spodoptera littoralis larvae, topical application; details: for activité (conclusion): conclusion in words on the Spodoptera littoralis test; for DL 50 (ng par individu): fourth-instar larvae, topical acetone solution on dorsal thorax, mortality 48 h after treatment
Protocol: 2°): Etude de l'effet sur larves de Spodoptera littoralis.
Les essais sont effectués par application topique d'une solution acétonique du produit à tester à l'aide du micro manipulateur d'Arnold sur le thorax dorsal des larves. On utilise 15 larves par dose de produit à tester. Les larves utilisées sont des larves du quatrième stade larvaire, c'est-à-dire âgées d'environ 10 jours lorsqu'elles sont élevées à 24°C et 65% d'humidité relative. Après traitement, les individus sont placés sur un milieu nutritif artificiel (milieu de Poitout).
On effectue le contrôle des mortalités 48 heures après traitement.

[2] = system: blatte germanique (Blatella germanica); assay: Tarsal contact activity on German cockroach
Protocol: 4°): Etude de l'activité par contact tarsal sur blatte germanique. (composé de l'exemple 1J
Les insectes testés sont des mâles de blatte germanique (Blatella germanica). On opère par dépôt d'une solution acétonique de concentration déterminée sur le fond d'une boîte de Petri de 20 cm de diamètre. Après séchage on laisse séjourner 20 mâles de blattes par concentration durant 1 heure puis on transfère les insectes sur milieu sain et on contrôle leur mortalité à 24 h, 48 h, 3 et 5 jours.

Tétranychus urticae = assay: Adulticide test on Tetranychus urticae on bean plants; details: dose 2,8 mg/I, sprayed bean plants, checks after 1, 24, 48 and 72 h of contact
Protocol: 5°): Activité sur Tétranychus urticae. (composé de l'exemple 1)
On utilise des plants de haricot comportant deux feuilles cotylédonaires. Ces plants sont traités au pistolet Fisher avec une solution acétonique du produit. Après séchage 25 femelles de l'acarien Tétranychus urticae sont disposées par feuilles soit 50 individus par dose expérimentée par plant. Les contrôles d'efficacité sont effectués après 1, 24, 48 et 72 heures de contact.

| SMILES | activité (conclusion) (mouche domestique) | KT 50 en mn (mouche domestique; Concentration 1 g/l) | activité (conclusion) (mouches domestiques) | DL 50 (ng par individu) (mouches domestiques) | further results |
| --- | --- | --- | --- | --- | --- |
| C#CCN1CC(=O)N(COC(=O)[C@@H]2[C@H](/C=C\C(=O)OCC(F)(F)F)C2(C)C)C1=O [Exemple 26, (1R cis) 2,2-diméthyl-3-/(Z)-3-oxo 3-(2,2,2-trifluoro éthoxy) 1-propényl/ cyclopropane carboxylatede (3-propargyl 2,5-dioxoimidazolidinyl) méthyle] | bonne activité |  |  |  | KT 50 en mn (mouche domestique; Concentration 0,25 g/l): 1,550 mn |
| CC1(C)[C@H](C(=O)OC(C#N)c2cccc(Oc3ccccc3)n2)[C@@H]1/C=C\C(=O)OCC(F)(F)F (stereo partly drawn) [Exemple 30, (1R cis) 2,2-diméthyl-3-/(Z)-3-oxo 3-(2,2,2-trifluoro éthoxy) 1-propényl/ cyclopropane carboxylatede (RS) a-cyano 6-phénoxy 2-pyridyl méthyle] | bonne activité | 3,498 mn |  |  |  |
| C#C[C@@H](OC(=O)[C@@H]1[C@H](/C=C\C(=O)OCC(F)(F)F)C1(C)C)c1cccc(Oc2ccccc2)c1 [Exemple 29, (1R cis) 2,2-diméthyl-3-/(Z)-3-oxo 3-(2,2,2-trifluoro éthoxy) 1-propényl/ cyclopropane carboxylatede (R) a-éthynyl 3-phénoxy benzyle] |  |  | activité remarquable | 0,825 ng par individu |  |
| C=CCC1=C(C)[C@@H](OC(=O)[C@@H]2[C@H](/C=C\C(=O)OCC(F)(F)F)C2(C)C)CC1=O [Exemple 2, (1R cis) 2,2-diméthyl-3-/(Z)-3-oxo-3-(2,2,2-trifluoroéthoxy) 1-propényll cyclopropane carboxylatede (1S) 2-diméthyl-4-oxo-3-(2-propényl) 2-cyclopenten-1-yle] | bonne activité |  |  |  | KT 50 en mn (mouche domestique; Concentration 0,25 g/l): 3,608 mn |
| CC1(C)[C@H](C(=O)O[C@H](C#N)c2cccc(Oc3ccccc3)c2)[C@@H]1/C=C\C(=O)OCC(F)(F)F [Exemple 1, (1 R cis) 2,2-diméthyl 3/(Z) 3-(2,2,2-trifluoroéthoxy) 3-oxo 1-propényl/ cyclopropane carboxylatede (S) a-cyano 3-phénoxy benzyle] | bonne activité | 3,534 mn | activité remarquable | 1,115 ng par individu | activité (conclusion) [1]: bonne activité; DL 50 (ng par individu) [1]: 4,699 ng par individu; activité (conclusion) ([2]; conclusion in words on the tarsal contact test): très bonne activité; concentration létale 50 (CL 50) ([2]; male cockroaches, 1 h contact with dried deposit in Petri dish, mortality checked at 24 h, 48 h, 3 and 5 days): 0,216 mg/m2; activité (essai adulticide) (Tétranychus urticae): très bonne activité |
| CC1(C)[C@H](C(=O)O[C@H](C#N)c2cccc(Oc3ccccc3)c2)[C@@H]1/C=C\C(=O)OCCF [Exemple 35, (1R cis) 2,2-diméthyl-3-/(Z)-3-oxo 3-(2-fluoroéthoxy) 1-propényl/ cyclopropane carboxylatede (S) a-cyano 3-phénoxy benzyle] | bonne activité | 2,894 mn |  |  | activité (conclusion) [1]: bonne activité; DL 50 (ng par individu) [1]: 0,544 ng par individu |
| CC1(C)[C@H](C(=O)O[C@H](C#N)c2cccc(Oc3ccccc3)c2)[C@@H]1/C=C\C(=O)OC(C(F)(F)F)C(F)(F)F [Exemple 23, (1R cis) 2,2-diméthyl-3-/(Z)-3-oxo 3-(2-(1,1,1,3,3,3-hexafluoro)propoxy) 1-propényl/ cyclopropane carboxylatede (S) a-cyano 3-phénoxy benzyle] |  |  | activité remarquable | 0,962 ng par individu |  |
